The values below come from PubChem BioAssay (NCI).

Molecules are shown by their SMILES.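 Each compound was tested at five concentrations against cells in 96-well plates for 48 hours. Here, GI50 denotes the concentration required for 50% inhibition of growth. At the TGI there is no net growth.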

Among the test systems are OVCAR-4 ovarian; BT-549 breast; A549 NSCLC; RPMI-8226 leukemia; LOX IMVI melanoma; NCI-H23 lung; A498 renal; SK-MEL-28 melanoma.
Common to all, as to assay: NCI anticancer screen, dose series, 48 h

Turning to `O=C(CCl)NCCNc1nccc(Nc2ccc(S(=O)(=O)Nc3ccccn3)cc2)n1`, the GI50 in the assay with OVCAR-4 ovarian is 3.1 µM; in the assay with BT-549 breast, 2.32 µM; in the assay with A549 NSCLC, 3.4 µM; in the assay with RPMI-8226 leukemia, 2.09 µM; in the assay on LOX IMVI melanoma it was 1.75 µM; in the assay on NCI-H23 lung, 2.04 µM. Moreover, the GI50 with A498 renal was 3.67 µM; with SK-MEL-28 melanoma, 2.97 µM. Besides, the TGI in the assay on OVCAR-4 ovarian was 25.3 µM; in the assay with BT-549 breast, 13.9 µM; in the assay on A549 NSCLC, 13 µM; in the assay on RPMI-8226 leukemia, 7.6 µM; in the assay on LOX IMVI melanoma, 4.12 µM; in the assay on NCI-H23 lung it was 6.11 µM. The figures for the TGI in the assay with A498 renal and in the assay on SK-MEL-28 melanoma were 13.1 µM and 13.5 µM, respectively.

Turning to `Cn1c(=O)c(Oc2ccc(F)cc2F)cc2cnc(NC(C)(C)CO)nc21`, the GI50 in the assay with OVCAR-4 ovarian is > 25 µM; in the assay with BT-549 breast, > 21.4 µM; with A549 NSCLC, > 25 µM; in the assay with RPMI-8226 leukemia, > 25 µM; with LOX IMVI melanoma, > 25 µM; in the assay on NCI-H23 lung, > 25 µM. In addition, the GI50 in the assay on A498 renal is > 15.9 µM; with SK-MEL-28 melanoma, > 25 µM. Also, the TGI in the assay on OVCAR-4 ovarian, with BT-549 breast, in the assay with A549 NSCLC, in the assay with RPMI-8226 leukemia, with LOX IMVI melanoma and in the assay with NCI-H23 lung was > 25 µM in each case. The TGI with A498 renal and in the assay with SK-MEL-28 melanoma was > 25 µM each time.

`Cc1nc2c(c(N3CCCc4ccccc43)n1)CCC2`: the GI50 in the assay on OVCAR-4 ovarian is 0.0406 µM; in the assay with BT-549 breast, < 0.01 µM; in the assay on A549 NSCLC it was < 0.01 µM; in the assay on RPMI-8226 leukemia, < 0.01 µM; in the assay with LOX IMVI melanoma it was < 0.01 µM; in the assay on NCI-H23 lung, < 0.01 µM. The GI50 in the assay with A498 renal was < 0.01 µM; in the assay on SK-MEL-28 melanoma, 11.7 µM. Also, the TGI was > 100 µM in the assay with OVCAR-4 ovarian; 19.6 µM in the assay with BT-549 breast; > 100 µM with A549 NSCLC; 3.47 µM in the assay on RPMI-8226 leukemia; > 100 µM with LOX IMVI melanoma; > 100 µM with NCI-H23 lung. Besides, the TGI with SK-MEL-28 melanoma is > 100 µM.

Turning to `COc1cc(Oc2c(C)c(Cl)c(OC)c(Cl)c2OC)c2c(c1Cl)COC2=O`, the TGI in the assay with OVCAR-4 ovarian was > 100 µM; with BT-549 breast it was > 100 µM; in the assay on A549 NSCLC it was > 100 µM; with RPMI-8226 leukemia, 13.1 µM; in the assay on LOX IMVI melanoma, > 100 µM; in the assay with NCI-H23 lung, > 100 µM. The TGI in the assay with A498 renal and in the assay on SK-MEL-28 melanoma was > 100 µM in each case.

On to `CC(=O)Nc1cc2cc(N)ccc2oc1=O`, for which the TGI in the assay on OVCAR-4 ovarian, with BT-549 breast, with A549 NSCLC, in the assay on RPMI-8226 leukemia, in the assay with LOX IMVI melanoma and with NCI-H23 lung was > 100 µM each time. The TGI in the assay on A498 renal and in the assay on SK-MEL-28 melanoma was > 100 µM each time.

For `O=C1/C(=C/c2ccccc2)CN(C(=O)C(Cl)Cl)C/C1=C\c1ccccc1`, the GI50 in the assay on OVCAR-4 ovarian was 1.12 µM; with BT-549 breast, 1.24 µM; in the assay on A549 NSCLC it was 1.7 µM; with RPMI-8226 leukemia, 0.0474 µM; in the assay with LOX IMVI melanoma, 0.139 µM; in the assay with NCI-H23 lung, 0.822 µM. The values for the GI50 in the assay on A498 renal and with SK-MEL-28 melanoma were 1.48 µM and 0.68 µM, respectively. Moreover, the TGI stood at 2.44 µM in the assay with OVCAR-4 ovarian; 2.69 µM with BT-549 breast; 3.92 µM in the assay with A549 NSCLC; 0.278 µM in the assay on RPMI-8226 leukemia; 0.353 µM in the assay with LOX IMVI melanoma; 2.73 µM in the assay with NCI-H23 lung. Also, the TGI worked out at 3 µM in the assay with A498 renal and 1.81 µM in the assay on SK-MEL-28 melanoma.

As for `CSC(=NC#N)S/C=C/C(=O)c1ccccc1`, the GI50 in the assay with OVCAR-4 ovarian was > 100 µM; with BT-549 breast, 29.2 µM; in the assay on A549 NSCLC, 90.6 µM; in the assay with RPMI-8226 leukemia, 12.3 µM; in the assay on LOX IMVI melanoma it was 31 µM; in the assay with NCI-H23 lung it was 23.8 µM. Further, the GI50 is 61 µM in the assay on A498 renal and 58 µM with SK-MEL-28 melanoma. In addition, the TGI in the assay with OVCAR-4 ovarian was > 100 µM; in the assay on BT-549 breast, 70.4 µM; with A549 NSCLC it was > 100 µM; with RPMI-8226 leukemia it was 34.7 µM; in the assay on LOX IMVI melanoma it was > 100 µM; with NCI-H23 lung it was 58.8 µM. Besides, the TGI with A498 renal and in the assay with SK-MEL-28 melanoma was > 100 µM in each case.

As to `CC(C)N1CCN(c2ccncc2S(=O)(=O)N2CCCCC2)CC1`, the TGI in the assay on OVCAR-4 ovarian, with BT-549 breast, in the assay with A549 NSCLC, with RPMI-8226 leukemia, in the assay with LOX IMVI melanoma and in the assay with NCI-H23 lung was > 100 µM throughout. For the same compound, the TGI with A498 renal and in the assay on SK-MEL-28 melanoma was > 100 µM in each case.

Regarding `CC(=O)O[C@H]([C@H](OC(C)=O)[C@H](C)OC(C)=O)[C@@H](/C=C/[C@@H]1CC=CC(=O)O1)OC(C)=O`, the GI50 with OVCAR-4 ovarian was 45.3 µM; with BT-549 breast, 22.3 µM; in the assay with A549 NSCLC, > 100 µM; in the assay with RPMI-8226 leukemia, 29.7 µM; in the assay with LOX IMVI melanoma it was 57.1 µM; with NCI-H23 lung, 35.6 µM. For the same compound, the GI50 in the assay with A498 renal is 50.2 µM; with SK-MEL-28 melanoma it was 40.4 µM. For the same compound, the TGI in the assay on OVCAR-4 ovarian was > 100 µM; in the assay with BT-549 breast, 51.3 µM; in the assay on A549 NSCLC it was > 100 µM; with RPMI-8226 leukemia it was 99.5 µM; in the assay on LOX IMVI melanoma, > 100 µM; with NCI-H23 lung, > 100 µM. Also, the TGI in the assay with A498 renal and with SK-MEL-28 melanoma was > 100 µM throughout.

`C=C1CC2(CC(c3ccccc3Cl)OC(c3ccccc3Cl)C2)OC1=O` (stereo not drawn): the TGI in the assay with OVCAR-4 ovarian worked out at 8.56 µM; in the assay with BT-549 breast it was 4.59 µM; with A549 NSCLC, 21.2 µM; in the assay on RPMI-8226 leukemia, 3.84 µM; with LOX IMVI melanoma, 2.72 µM; with NCI-H23 lung, 9.03 µM. Moreover, the TGI amounted to 21.3 µM in the assay with A498 renal and 3.65 µM in the assay on SK-MEL-28 melanoma.

On to `COC1C(O)CC(OC2CC(OC3CC(O[C@@H]4C(=O)c5c(cc6cc(OC7CC(OC8CC(O)C(O)C(C)O8)C(O)C(C)O7)c(C)c(O)c6c5O)CC4[C@H](OC)C(=O)O)OC(C)C3O)OC(C)C2O)OC1C` (stereo partly drawn), for which the GI50 was 4.9 µM in the assay with OVCAR-4 ovarian; 1.8 µM in the assay with BT-549 breast; 1.66 µM with A549 NSCLC; 1.73 µM with RPMI-8226 leukemia; 0.983 µM with LOX IMVI melanoma; 1.63 µM in the assay on NCI-H23 lung. Moreover, the GI50 is 0.725 µM in the assay on A498 renal and 1.48 µM in the assay on SK-MEL-28 melanoma. For the same compound, the TGI was > 33.3 µM with OVCAR-4 ovarian; 31.8 µM with BT-549 breast; > 33.3 µM in the assay on A549 NSCLC; > 33.3 µM with RPMI-8226 leukemia; 5.07 µM with LOX IMVI melanoma; 17.2 µM in the assay on NCI-H23 lung. Moreover, the values for the TGI with A498 renal and with SK-MEL-28 melanoma were 2.6 µM and 11.7 µM, respectively.
